Laboratory results reported in patent publication US20050191735A1, “Oxidoreductase” (priority 2003, published 2005).
Read-outs that look alike come from different tables or passages of the source.

What was measured:
[1] = test system: recombinant Lactobacillus reuteri oxidoreductase; assay: Substrate spectrum in standard measurement mixture; assay type: biochemical; conditions: for NADP-dependent dehydrogenase activity: oxidation of the hydroxy ester
[2] = test system: L. reuteri oxidoreductase; assay: Solvent stability: enzyme activity after contact with organic solvents; assay type: biochemical, Lactobacillus reuteri; conditions: for Activity 8 h / Activity 24 h: room temperature; for stability with respect to organic solvents: in words
Procedure: The enzyme stability when making contact with organic solvents was studied by diluting the L. reuteri oxidoreductase 1:400 (in the case of water-miscible organic solvents) with the solvent mixtures indicated and incubating at room temperature. Subsequently, 10 μl of the enzyme solution were used in the standard assay mixture. Here too, the starting value was set to 100% after dilution in the buffer (potassium phosphate buffer 100 mM, pH=7.0, 1 mM MgCl2) and all other values were related thereto.
In the case of the water-immiscible organic solvents, dilution was likewise carried out in potassium phosphate buffer, the same volume of organic solvent was added to the mixture and the mixture incubated at room temperature in a thermal mixer at rpm=170. The activity was measured from the aqueous phase.

[3] = test system: L. reuteri oxidoreductase; assay: Preparative conversion, coenzyme regeneration with KRED 1004; assay type: biochemical, Lactobacillus reuteri; conditions: 4 ml substrate, 1 000 units oxidoreductase, 1 mg KRED 1004, room temperature, after 2 h
Procedure: For a preparative approach, a mixture of 4 ml of potassium phosphate buffer 100 mM, pH=7.0, 2 ml of isopropanol, 4 ml of ethyl 2-oxo-4-phenylbutyrate, 0.064 mg of NADP, 1 000 units of L. reuteri oxidoreductase and 1 mg of KRED 1004 (Biocatalytics Inc, Pasadena) was incubated at room temperature with constant mixing for 2 h. […] 98% of the product was the corresponding S-alcohol.

[4] = test system: L. reuteri oxidoreductase; assay: Preparative conversion, coenzyme regeneration with Thermoanerobium brockii ADH; assay type: biochemical, Lactobacillus reuteri; conditions: 4 ml substrate, 1 000 units oxidoreductase, room temperature, after 24 h
Procedure: For a preparative approach, a mixture of 4 ml of potassium phosphate buffer 100 mM, pH=7.0, 2 ml of isopropanol, 4 ml of ethyl 2-oxo-4-phenylbutyrate, 0.064 mg of NADP, 1 000 units of L. reuteri oxidoreductase and 10 mg of Thermoanerobium brockii ADH (Fluka, approximately 100 U, based on oxidation of 2-propanol) was incubated at room temperature with constant mixing for 24 h. […] 97% of the product was the corresponding S-alcohol.

[5] = pH stability of recombinant L. reuteri oxidoreductase; assay type: physicochemical
Procedure: The dependence of the activity of the enzyme on storage in buffers of different pH was studied for the pH range from 4 to 11. For this purpose, various buffers (50 mM) in the pH range from 4 to 11 were prepared and the enzyme overexpressed in example 4 was diluted therein 1:200 and incubated for 30, 60 and 300 min. All buffers contained 1 mM MgCl2. 10 μl thereof were then used in the normal activity assay. The starting value here is the measurement value obtained immediately after diluting the enzyme in potassium phosphate buffer 50 mM pH=7.0. Said value corresponded under predefined conditions to a change in extinction of 0.70/min and was set to 100% and all subsequent measurement values were related to this value.

[6] = Temperature stability of recombinant L. reuteri oxidoreductase; assay type: physicochemical; conditions: after only 30 min
Procedure: The temperature stability for the range from 15° C. to 70° C. was determined in a manner similar to that described under 5.2. […] Here too, the starting value used was the measurement value which is obtained immediately after diluting the enzyme in potassium phosphate buffer 50 mM pH=7.0 and which was set to 100% here, too.

[7] = pH optimum of recombinant L. reuteri oxidoreductase; assay type: biochemical
Procedure: Preparation of the following measurement buffers, all of which are 50 mM, contain 1 mM MgCl2 and have different pH values.
Enzyme diluted as required (1:20)
A pH optimum of between 6.5 and 7 was determined for the enzyme of the invention.

[8] = substrate: CCCC(=O)C(=O)OCC; assay: Determination of Km and vmax; assay type: biochemical, Lactobacillus reuteri; conditions: other: potassium phosphate buffer pH=7.0, enzyme solution 1:300
Procedure: The enzyme solution used was the 1:300 diluted lysate (600 μl) obtained from 0.1 g of recombinant E. coli cells.

[9] = Temperature optimum of recombinant L. reuteri oxidoreductase; assay type: biochemical
[10] = Oxidation, activity with ethyl 2-oxo-4-phenylbutyrate set to 100%
[11] = reduction with NADPH, activity with ethyl 2-oxo-4-phenylbutyrate set to 100%
[12] = water-miscible solvent mixture or buffer, enzyme 1:400, starting value 100%
[13] = water-immiscible solvent, same volume as buffer, activity from the aqueous phase

## CCOC(=O)[C@H](O)CCc1ccccc1
[1]; [10]
  Relative activity %: 0%
[1]
  NADP-dependent dehydrogenase activity: no NADP-dependent dehydrogenase activity

## CCOC(=O)C(=O)c1ccccc1 [Ethyl phenylglyoxylate]
[1]; [11]
  Relative activity %: 2%

## CCOC(=O)C(C)=O [Ethyl pyruvate]
[1]; [11]
  Relative activity %: 2%

## C[S+](C)[O-] [20% DSMO]
[2]; [12]
  Activity 8 h: 79%
  Activity 24 h: 80%

## CCCCCCC [Heptane]
[2]; [13]
  Activity 8 h: 113%
  Activity 24 h: 100%

## R-4-Chloro-3-hydroxy-butyrate
[1]; [10]
  Relative activity %: 0%
[1]
  NADP-dependent dehydrogenase activity: no NADP-dependent dehydrogenase activity

## C[S+](C)[O-] [10% DSMO]
[2]; [12]
  Activity 8 h: 80%
  Activity 24 h: 80%

## CCOC(=O)CC(=O)CC [Ethyl 3-oxo-valerate]
[1]; [11]
  Relative activity %: 1.3%

## CCCCCCCC(=O)c1ccccc1 [Caprylophenone]
[1]; [11]
  Relative activity %: 0%

## CCOC(C)=O [Ethyl acetate]
[2]; [13]
  Activity 8 h: 0%
  Activity 24 h: 0%

## CC(C)O [20% Isopropanol, Isopropanol]
[2]; [12]
  Activity 8 h: 100%
  Activity 24 h: 100%

## CC(=O)c1ccccc1 [Acetophenone]
[1]; [11]
  Relative activity %: 0%

## CCCCCC [Hexane]
[2]; [13]
  Activity 8 h: 115%
  Activity 24 h: 100%

## O=C(O)C(=O)Cc1ccccc1 [2-Oxo-3-phenyl-propionic acid]
[1]; [11]
  Relative activity %: 0.5%

## CCOC(=O)CC(=O)CCl [Ethyl 4-chloro-acetoacetate]
[1]; [11]
  Relative activity %: 16%

## CCCCCCC(C)=O [2-Octanone]
[1]; [11]
  Relative activity %: 1%

## CCO [20% EtOH, EtOH]
[2]; [12]
  Activity 8 h: 83%
  Activity 24 h: 80%

## ClC(Cl)Cl [Chloroform]
[2]; [13]
  Activity 8 h: 6%
  Activity 24 h: 0%

## CCOCC [Diethyl ether]
[2]; [13]
  Activity 8 h: 32%
  Activity 24 h: 20%

## O=C(CCl)c1cccc(Cl)c1 [2-Chloro-l-(3-chloro-phenyl)-ethan-1-one]
[1]
  Relative activity %: 0%

## CCCC(=O)C(=O)O [2-Oxovaleric acid]
[1]; [11]
  Relative activity %: 0%

## COC(=O)CCCCC(=O)CC(=O)OC [Dimethyl-3-oxo-1,8-octanedioic acid]
[1]; [11]
  Relative activity %: 42%

## C1CCCCC1 [Cyclohexane]
[2]; [13]
  Activity 8 h: 113%
  Activity 24 h: 100%

## CCCCOC(C)=O [Butyl acetate]
[2]; [13]
  Activity 8 h: 74%
  Activity 24 h: 12%

## CC(C)O [5% Isopropanol, Isopropanol]
[2]; [12]
  Activity 8 h: 77%
  Activity 24 h: 77%

## CCO [5% EtOH, EtOH]
[2]; [12]
  Activity 8 h: 64%
  Activity 24 h: 65%

## CC(=O)Cc1ccccc1 [1-Phenyl-2-propanone]
[1]; [11]
  Relative activity %: 3%

## CCOC(=O)CCCCC(=O)CCCl [Ethyl 8-chloro-6-oxooctanoic acid]
[1]; [11]
  Relative activity %: 190%

## CC(C)O [2-Propanol]
[1]; [10]
  Relative activity %: 0%

## CC(C)OC(C)C [Diisopropyl ether]
[2]; [13]
  Activity 8 h: 94%
  Activity 24 h: 77%

## CCCCCC(=O)CC [3-Octanone]
[1]; [11]
  Relative activity %: 4%

## CCC(=O)C(=O)O [2-oxobutyric acid]
[1]; [11]
  Relative activity %: 0%

## COC(C)(C)C [MTBE]
[2]; [13]
  Activity 8 h: 90%
  Activity 24 h: 81%

## CCOC(=O)[C@@H](C)O [Ethyl D-lactate]
[1]; [10]
  Relative activity %: 0%
[1]
  NADP-dependent dehydrogenase activity: no NADP-dependent dehydrogenase activity

## CCOC(=O)[C@H](C)O [Ethyl L-lactate]
[1]; [10]
  Relative activity %: 0%
[1]
  NADP-dependent dehydrogenase activity: no NADP-dependent dehydrogenase activity

## CCO [30% EtOH, EtOH]
[2]; [12]
  Activity 8 h: 77%
  Activity 24 h: 75%

## CC(C)O [30% Isopropanol, Isopropanol]
[2]; [12]
  Activity 8 h: 0%
  Activity 24 h: 0%

## CCOC(=O)C(=O)CCc1ccccc1 [Ethyl 2-oxo-4-phenyl-butyrate]
[1]; [11]
  Relative activity %: 100%
[3]
  conversion to ethyl 2-hydroxy-4-phenylbutyrate: completely converted
[4]
  conversion to ethyl 2-hydroxy-4-phenylbutyrate: completely converted

## CCCC(=O)C(=O)OCC [Ethyl 2-oxovalerate]
[1]; [11]
  Relative activity %: 190%

## CC(C)=O [Acetone]
[1]; [11]
  Relative activity %: 0%

## CCO [10% EtOH, EtOH]
[2]; [12]
  Activity 8 h: 68%
  Activity 24 h: 70%

## O=C(O)C[C@H](O)CCl [S-4-Chloro-3-hydroxy-butyrate]
[1]; [10]
  Relative activity %: 0%
[1]
  NADP-dependent dehydrogenase activity: no NADP-dependent dehydrogenase activity

## CC(C)O [10% Isopropanol, Isopropanol]
[2]; [12]
  Activity 8 h: 86%
  Activity 24 h: 85%

## COC(=O)CC(C)=O [Methyl acetoacetate]
[1]; [11]
  Relative activity %: 0.3%

B1: recombinant L. reuteri oxidoreductase (Limosilactobacillus reuteri subsp. reuteri) (protein)
chain: MKNIMIAGAGVLGSQIAYQTALSGFNVSVYNHHIDTAERRIKALKSDYERDLHLTDKEFQQGLNNIKVITDDVATAVKDADLMIEALPESLELKEQFYEEVSELAPEKTIFASNSSTFIPSQLAPYTDRPEKFLNMHFANQIWKFNVVEIMGTSQTSPEVIEEATKFAREIKMVPVILNKEQHGYILNSLLIPLLASGLSLWAKGVADPAMIDKDWMISTGAPMGPFGILDMVGLRTAAQIERNAYAQTKDESHKEIADKMEQMIQEGHEGKESGQGFYNYPNPAFMDPDFLKH
[5]; pH 4.0, after 5 h
  remaining activity: 50%
[5]; pH 9.0, after 5 h
  remaining activity: 40%
[5]; pH values above 9.5
  stability at high pH: immediate inactivation
[6]
  enzyme activity after incubation at 55° C.: no longer detectable
[2]
  stability with respect to organic solvents: remarkably stable
[2]; listed as Lactobacillus reuteri oxidoreductase
  stability with respect to organic solvents: high stability
[7]; in the pH range from 4.5 to 8
  share of maximum activity: 80%
[7]; pH values of below 4.0 and above 8.5
  activity outside the pH range: rapidly decreasing
[8]
  Km: 0.18 ± 0.07 mM
[9]; 15 ° C.
  Activity in U/ml of undiluted enzyme: 385 U/ml of undiluted enzyme
[9]; 20 ° C.
  Activity in U/ml of undiluted enzyme: 745 U/ml of undiluted enzyme
[9]; 25 ° C.
  Activity in U/ml of undiluted enzyme: 1090 U/ml of undiluted enzyme
[9]; 30 ° C.
  Activity in U/ml of undiluted enzyme: 1350 U/ml of undiluted enzyme
[9]; 35 ° C.
  Activity in U/ml of undiluted enzyme: 1860 U/ml of undiluted enzyme
[9]; 40 ° C.
  Activity in U/ml of undiluted enzyme: 2500 U/ml of undiluted enzyme
[9]; 45 ° C.
  Activity in U/ml of undiluted enzyme: 2900 U/ml of undiluted enzyme
[9]; 50 ° C.
  Activity in U/ml of undiluted enzyme: 3200 U/ml of undiluted enzyme
[9]; 55 ° C.
  Activity in U/ml of undiluted enzyme: 3800 U/ml of undiluted enzyme
[9]; 60 ° C.
  Activity in U/ml of undiluted enzyme: 617 U/ml of undiluted enzyme
[9]; 65 ° C.
  Activity in U/ml of undiluted enzyme: 180 U/ml of undiluted enzyme
[9]; 70 ° C.
  Activity in U/ml of undiluted enzyme: 90 U/ml of undiluted enzyme
[9]; standard measurement mixture, 15° C. to 70° C.
  optimal temperature (maximum activity): 55 °C
